The target of this assay is T1, Human TRPC6 (Homo sapiens, UniProt Q9Y210).
T1 construct: expressed in transfected cells
T1 sequence (Q9Y210 1-931): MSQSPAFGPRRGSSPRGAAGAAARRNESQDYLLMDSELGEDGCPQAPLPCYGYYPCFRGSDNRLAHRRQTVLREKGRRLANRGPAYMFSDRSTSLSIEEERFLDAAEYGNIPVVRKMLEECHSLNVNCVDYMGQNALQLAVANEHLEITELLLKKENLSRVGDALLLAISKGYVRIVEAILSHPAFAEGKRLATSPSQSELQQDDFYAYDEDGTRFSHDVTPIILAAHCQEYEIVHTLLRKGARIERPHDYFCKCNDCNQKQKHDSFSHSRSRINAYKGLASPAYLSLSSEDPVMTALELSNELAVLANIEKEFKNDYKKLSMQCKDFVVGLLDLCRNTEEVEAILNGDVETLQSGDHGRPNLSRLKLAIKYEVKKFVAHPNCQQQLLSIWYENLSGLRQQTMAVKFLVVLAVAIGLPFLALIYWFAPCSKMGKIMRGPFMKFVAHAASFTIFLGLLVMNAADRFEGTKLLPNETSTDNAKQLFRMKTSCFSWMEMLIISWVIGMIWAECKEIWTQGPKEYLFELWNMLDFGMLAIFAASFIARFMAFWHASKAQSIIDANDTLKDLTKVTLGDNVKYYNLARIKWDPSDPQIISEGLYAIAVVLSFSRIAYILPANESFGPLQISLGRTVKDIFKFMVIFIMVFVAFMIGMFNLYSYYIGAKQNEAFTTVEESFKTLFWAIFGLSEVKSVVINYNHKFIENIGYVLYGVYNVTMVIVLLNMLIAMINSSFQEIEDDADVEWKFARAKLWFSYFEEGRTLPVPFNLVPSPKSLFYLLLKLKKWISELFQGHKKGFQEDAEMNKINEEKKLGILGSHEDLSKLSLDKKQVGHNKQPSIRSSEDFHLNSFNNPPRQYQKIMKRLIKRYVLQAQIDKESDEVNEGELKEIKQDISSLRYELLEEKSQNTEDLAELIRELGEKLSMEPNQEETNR
Kind of assay: Evaluation of TRPC6 channel inhibitory activity (1), FLIPR Calcium 5 Assay Kit, OAG stimulation (Compound Nos. 1-1293). Format: cell-based. Particulars: Human TRPC6 stably-expressing cells, OAG 30 μM, FLIPR Calcium 5 Assay Kit; read-out: Inhibitory activity (pIC50 class) (converted). Summed up: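 Readout is pIC50 from four-parameter logistic fitting of inhibition of the OAG-evoked (30 μM final) fluorescence calcium signal. Human TRPC6 stable cells are dye-loaded with probenecid, and compound is applied 20 min ahead of agonist.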

Experimental findings from patent US20230167073A1 (Teijin Pharma Limited, priority 2020, published 2023) are described below.

`CNC(=O)C(N)c1ccc(-c2ccc(C#N)cc2Oc2cc(C3CC3)nn2C)nc1` (stereo not drawn) [compound 491, 2-amino-2-[6-[4-cyano-2-(5-cyclopropyl-2-methylpyrazol-3-yl)oxyphenyl]pyridin-3-yl]-N-methylacetamide]: the IC50 is 10 to 1000 nM.
Consider `COCCOc1cc(Oc2cc(C#N)ccc2-c2ncc(CCN)cn2)cc(C)n1` [compound 492, 4-[5-(2-aminoethyl)pyrimidin-2-yl]-3-[2-(2-methoxyethoxy)-6-methylpyridin-4-yl]oxybenzonitrile], for which the IC50 is 10 to 1000 nM.
Next, `Cn1nc(C2CC2)cc1Oc1cc(C#N)ccc1-c1ccc(CN)n2ccnc12` [compound 493, 4-[5-(aminomethyl)imidazo[1,2-a]pyridin-8-yl]-3-(5-cyclopropyl-2-methylpyrazol-3-yl)oxybenzonitrile]: under 10 nM.
Take `Cc1cc(Oc2cc(C#N)ccc2-c2ccc(CN)n3ccnc23)cc(N2CCOCC2)n1` [compound 494, 4-[5-(aminomethyl)imidazo[1,2-a]pyridin-8-yl]-3-(2-methyl-6-morpholin-4-ylpyridin-4-yl)oxybenzonitrile]: the IC50 is 10 to 1000 nM.
As for `Cn1nc(C2CCOC2)cc1Oc1cc(C#N)ccc1-c1ncc(CCN)cn1` (stereo not drawn) [compound 495, 4-[5-(2-aminoethyl)pyrimidin-2-yl]-3-[2-methyl-5-(oxolan-3-yl)pyrazol-3-yl]oxybenzonitrile], the IC50 is 10 to 1000 nM.
As for `Cn1nc(C2CCOC2)cc1Oc1cc(C#N)ccc1-c1ccc(CCN)cn1` (stereo not drawn) [compound 496, 4-[5-(2-aminoethyl)pyridin-2-yl]-3-[2-methyl-5-(oxolan-3-yl)pyrazol-3-yl]oxybenzonitrile], the figure is under 10 nM; as for `Cc1c(CN2CCN[C@@H](C)C2)cc(-c2ccc(C#N)cc2Oc2cc(C3CC3)nn2C)c2nccn12` [compound 497, 3-(5-cyclopropyl-2-methylpyrazol-3-yl)oxy-4-[5-methyl-6-[[(3S)-3-methylpiperazin-1-yl]methyl]imidazo[1,2-a]pyridin-8-yl]benzonitrile], over 1000 nM.
Turning to `Cc1cc(Oc2cc(C#N)ccc2-c2ccc([C@H](O)CN)cn2)cc(N2CCCC2)n1` [compound 498, 4-[5-[(1S)-2-amino-1-hydroxyethyl]pyridin-2-yl]-3-(2-methyl-6-pyrrolidin-1-ylpyridin-4-yl)oxybenzonitrile], the IC50 is under 10 nM.
As for `Cc1cc(Oc2cc(C#N)ccc2-c2ncc([C@H](O)CN)cn2)cc(N2CCCC2)n1` [compound 499, 4-[5-[(1S)-2-amino-1-hydroxyethyl]pyrimidin-2-yl]-3-(2-methyl-6-pyrrolidin-1-ylpyridin-4-yl)oxybenzonitrile], the figure is under 10 nM.
Take `Cc1cc(Oc2cc(C#N)ccc2-c2ccc([C@H](O)CN)cn2)cc(N2CCCCC2)n1` [compound 500, 4-[5-[(1S)-2-amino-1-hydroxyethyl]pyridin-2-yl]-3-(2-methyl-6-piperidin-1-ylpyridin-4-yl)oxybenzonitrile]: the IC50 is under 10 nM.
Next, `Cc1cc(Oc2cc(C#N)ccc2-c2ncc([C@H](O)CN)cn2)cc(N2CCCCC2)n1` [compound 501, 4-[5-[(1S)-2-amino-1-hydroxyethyl]pyrimidin-2-yl]-3-(2-methyl-6-piperidin-1-ylpyridin-4-yl)oxybenzonitrile]: under 10 nM; `Cc1cc(Oc2cc(C#N)ccc2-c2ccc([C@H](O)CN)cn2)cc(N2CC(F)C2)n1` [compound 502, 4-[5-[(1S)-2-amino-1-hydroxyethyl]pyridin-2-yl]-3-[2-(3-fluoroazetidin-1-yl)-6-methylpyridin-4-yl]oxybenzonitrile]: under 10 nM.
Next, `Cc1cc(Oc2cc(C#N)ccc2-c2ncc(CCN)cn2)cc(N2CC(F)C2)n1` [compound 503, 4-[5-(2-aminoethyl)pyrimidin-2-yl]-3-[2-(3-fluoroazetidin-1-yl)-6-methylpyridin-4-yl]oxybenzonitrile]: under 10 nM; `Cn1nc(C2CC2)cc1Oc1cc(C#N)ccc1-c1ccc(C(N)C(N)=O)cn1` (stereo not drawn) [compound 504, 2-amino-2-[6-[4-cyano-2-(5-cyclopropyl-2-methylpyrazol-3-yl)oxyphenyl]pyridin-3-yl]acetamide]: over 1000 nM; `Cc1cc(Oc2cc(C#N)ccc2-c2ccc([C@H](O)CN)cn2)cc(N2C[C@@H](C)O[C@@H](C)C2)n1` [compound 505, 4-[5-[(1S)-2-amino-1-hydroxyethyl]pyridin-2-yl]-3-[2-[(2S,6R)-2,6-dimethylmorpholin-4-yl]-6-methylpyridin-4-yl]oxybenzonitrile]: under 10 nM.
In the case of `Cc1cc(Oc2cc(C#N)ccc2-c2ncc([C@H](O)CN)cn2)cc(N2C[C@@H](C)O[C@@H](C)C2)n1` [compound 506, 4-[5-[(1S)-2-amino-1-hydroxyethyl]pyrimidin-2-yl]-3-[2-[(2S,6R)-2,6-dimethylmorpholin-4-yl]-6-methylpyridin-4-yl]oxybenzonitrile], the IC50 is under 10 nM.
Next, `Cc1nc(Oc2cc(C#N)ccc2-c2ccc([C@H](O)CN)cn2)cc(N2CCCC2)n1` [compound 507, 4-[5-[(1S)-2-amino-1-hydroxyethyl]pyridin-2-yl]-3-(2-methyl-6-pyrrolidin-1-ylpyrimidin-4-yl)oxybenzonitrile]: under 10 nM; `Cc1nc(Oc2cc(C#N)ccc2-c2ncc([C@H](O)CN)cn2)cc(N2CCCC2)n1` [compound 508, 4-[5-[(1S)-2-amino-1-hydroxyethyl]pyrimidin-2-yl]-3-(2-methyl-6-pyrrolidin-1-ylpyrimidin-4-yl)oxybenzonitrile]: under 10 nM; `Cc1nc(Oc2cc(C#N)ccc2-c2ccc([C@H](O)CN)cn2)cc(N2CCCCC2)n1` [compound 509, 4-[5-[(1S)-2-amino-1-hydroxyethyl]pyridin-2-yl]-3-(2-methyl-6-piperidin-1-ylpyrimidin-4-yl)oxybenzonitrile]: under 10 nM.
For `Cc1nc(Oc2cc(C#N)ccc2-c2ncc([C@H](O)CN)cn2)cc(N2CCCCC2)n1` [compound 510, 4-[5-[(1S)-2-amino-1-hydroxyethyl]pyrimidin-2-yl]-3-(2-methyl-6-piperidin-1-ylpyrimidin-4-yl)oxybenzonitrile], the IC50 is under 10 nM.
Turning to `Cn1nc(C2CC2)cc1Oc1cc(C#N)ccc1-c1ccc(C(N)c2nnn[nH]2)cn1` (stereo not drawn) [compound 511, 4-[5-[amino(1H-tetrazol-5-yl)methyl]pyridin-2-yl]-3-(5-cyclopropyl-2-methylpyrazol-3-yl)oxybenzonitrile], the IC50 is over 1000 nM.
With `Cn1nc(-c2ncccn2)cc1Oc1cc(C#N)ccc1-c1ccc(CCN)cn1` [compound 512, 4-[5-(2-aminoethyl)pyridin-2-yl]-3-(2-methyl-5-pyrimidin-2-ylpyrazol-3-yl)oxybenzonitrile], the IC50 was 10 to 1000 nM.
As for `COc1cccnc1-c1cc(Oc2cc(C#N)ccc2-c2ccc([C@H](O)CN)cn2)cc(C)n1` [compound 513, 4-[5-[(1S)-2-amino-1-hydroxyethyl]pyridin-2-yl]-3-[2-(3-methoxypyridin-2-yl)-6-methylpyridin-4-yl]oxybenzonitrile], the figure is 10 to 1000 nM; as for `Cn1nc(C2CCOCC2)cc1Oc1cc(C#N)ccc1-c1ccc(C(N)CO)cn1` (stereo not drawn) [compound 514, 4-[5-(1-amino-2-hydroxyethyl)pyridin-2-yl]-3-[2-methyl-5-(oxan-4-yl)pyrazol-3-yl]oxybenzonitrile], 10 to 1000 nM.
Turning to `Cn1nc(C2CC2)cc1Oc1cc(C#N)ccc1-c1cccn2c(CN)nnc12` [compound 515, 4-[3-(aminomethyl)-[1,2,4]triazolo[4,3-a]pyridin-8-yl]-3-(5-cyclopropyl-2-methylpyrazol-3-yl)oxybenzonitrile], the IC50 is 10 to 1000 nM.
As for `Cn1nc(-c2ccccc2)cc1Oc1cc(C#N)ccc1-c1ccc(C(N)C(N)=O)cn1` (stereo not drawn) [compound 516, 2-amino-2-[6-[4-cyano-2-(2-methyl-5-phenylpyrazol-3-yl)oxyphenyl]pyridin-3-yl]acetamide], the figure is over 1000 nM; as for `Cc1cc(Oc2cc(C#N)ccc2-c2ccc([C@@H](O)CN)cn2)cc(N2CCOCC2)n1` [compound 517, 4-[5-[(1R)-2-amino-1-hydroxyethyl]pyridin-2-yl]-3-(2-methyl-6-morpholin-4-ylpyridin-4-yl)oxybenzonitrile], under 10 nM.
